# Measured values published in patent publication US20020061862A1, “Inducible nitric oxide synthase for treatment of disease” (University of Pittsburgh of the Commonwealth System of …, priority 1992, published 2002).
# Legend:
# [1] = tested on: sheep pulmonary artery endothelial cells (SPAEC); assay type: cell-based; settings: L-NMA 0.5 mM, BH4 100 μM
# 3T3-iNOS cells = assay: NO2- production (iNOS activity) in transfected 3T3-iNOS cells; assay type: cell-based, murine; settings: MTX 12.5 μM
# Procedure: Cells were passaged to 6 well plates at a density of 1×10^5 cells/well 24 h prior to transfection. For 3T3 cells, each well of cells was transfected with a mixture of 1 μg plasmid DNA and 6 μg of Lipofectamine (GIBCO) in OPTIMEM-I media for 5 h. For RSMC, a ratio of 1 μg DNA to 7 μl of Lipofectamine was used. Following the incubation period, the transfection solution was removed and normal growth medium replaced. The transfection efficiency was estimated by X-gal staining of pIEP-lacZ transfected cells. All studies were performed at 24-72 h post-transfection.
# Twenty four hours following transfection, the cell medium was then replaced with fresh medium and the cells were cultured for an additional 24 h at which time the supernatants were assayed for accumulated NO2 using the Griess reaction (Geller, et al., 1993, Proc. Natl. Acad. Sci. USA: 90:522-526). Measurements were also performed in the presence of L-NMA (1 mM), BH4 (100 μM), and methotrexate (MTX 12.5 μM). The cells were lysed with 0.1 M NaOH and the protein concentration was quantified with the BCA protein assay. To assess the requirement for compression of GTPCH and iNOS in the same cell, 3T3 cells were transfected with either pIEPlacZ or pCIS-GTPCH. […] Cells were allowed to attach overnight and NO2− levels were measured 24 h later.
# [2] = tested on: ecNOS mRNA and protein in SPAEC; assay: Northern and Western blot for ecNOS expression in SPAEC; assay type: cell-based, sheep; settings: 1 mM, 6 h, versus SPAEC treated with the parent compound
# Procedure: Aliquots (20 μg) of RNA were electrophoresed on a 0.9% agarose gel and blotted to GeneScreen (DuPontNEN; Boston, Mass.). After prehybridization, the membranes were hybridized to a DNA probe as described (Geller, et al., 1993, Proc. Natl. Acad. Sci. USA 90:522-526). A 2.3 kb human iNOS cDNA fragment served as the iNOS probe while a 4.1 kb human endothelial cNOS cDNA fragment served as the ecNOS probe. 18S rRNA served as a control for relative RNA loading.
# The cells were lysed by three freeze-thaw cycles, and the cytosolic fraction was isolated by centrifugation at 100,000×g for 60 min at 4° C. as previously described (Luss, et al., 1994, Biochem. Biophys. Res. Comm. 204-2: 635-640). Protein concentrations were measured with the BCA protein assay (Pierce; Rockford, Ill.). For whole cell preparations, a similar procedure was performed without the centrifugation step.
# Cell cytosols (100μg) were electrophoresed through an 8% SDS-polyacrylamide gel and transferred to nitrocellulose membranes (Schleicher Schuell; Keene, N.H.) as described (Laemmli, 1970, Nature 227: 680-685). […]
smiles,measurement,setting,value
"CNC(=N)NCCC[C@H](N)C(=O)O [L-NMA, N^G-monomethyl-L-arginine]",effect of agent added to culture medium on nitrogen oxide synthesis / NO2^− production of SPAEC/DFG-iNOS-Neo,[1],inhibited
"CN(Cc1cnc2nc(N)nc(N)c2n1)c1ccc(C(=O)N[C@@H](CCC(=O)O)C(=O)O)cc1 [MTX, methotrexate]",reduction of iNOS activity recovered by BH4 supplementation,"3T3-iNOS cells; 3T3-iNOS, FIG. 23",over 5 fold
same,reduction of iNOS activity,3T3-iNOS cells; pCIS-GTPCH transfected 3T3iNOS cells,50%
"CC(=O)N[C@H](C(=O)O)C(C)(C)SN=O [SNAP, S-nitroso-N-acetyl-penicillamine]",increase in ecNOS mRNA,[2],1.5 fold
